This note sets out measurements from patent US6288091A, “Antiherpes virus compounds and methods for their preparation and use” (Boehringer Ingelheim Ltd., priority 1999, dated 2001).

One data set relates to HCMV (strain AD169). Nature of the data set: Inhibition of HCMV replication, ELISA assay (Hs-68 cells). It counts as cell-based, Human Cytomegalovirus (HCMV). Particulars: read-out: ELISA CMV EC50. The method in brief: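 EC50 derived from % inhibition of viral replication, read as p28 late-protein ELISA signal (mAb UL99, peroxidase/OPD, 450 nm) on fixed cells. Read-out came 8 days post-infection at 37 °C in DMEM with 5% FBS plus compound, after 2 h adsorption of AD169 at MOI 0.01 PFU/cell onto near-confluent Hs-68 cells.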
A general note: ELISA stands for enzyme-linked immunosorbent assay.

Data set [1] in a line: Inhibition of HCMV replication, plaque reduction assay (PRA, Hs-68 cells). Particulars: human. It counts as cell-based, Human Cytomegalovirus (HCMV). The method in brief: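 Hs-68 monolayers (80–90% confluent) were infected with ~50 PFU HCMV AD169 for 2 h at 37°, then given compound in DMEM/5% inactivated FBS, refreshed after 4 days and kept 4 more days. Plaques were counted after formaldehyde fixation and crystal violet staining. EC50 derives from percent plaque reduction versus untreated wells.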
On the technique in general: In a plaque reduction assay, fewer plaques than in the control indicate reduced infectivity or spread.

The next data set deals with HSV-1 KOS. The data set is described as follows: Cutaneous HSV-1 infection in the SKH-1 hairless mouse model, oral administration. It counts as in vivo. Particulars: Human alphaherpesvirus 1, Group 1 Table 1 entries, tid for five days, commencing three hours post infection, in 0.03 N aqueous HCl, read-out: ED50, reduction of viral pathology. The procedure:
In addition to the above results, certain Group 1 compounds have been tested against cutaneous HSV-1 infection in the SKH-1 hairless mouse model (P. H. Lee et al., supra). In this instance, viral pathology was monitored using a subjective scoring system and infection was initiated by spreading a viral inoculum (HSV-1 KOS, 7.3×10^7 PFU) over punctured skin.
Still furthermore, oral doses of Entry No.29 of Group 1 at 50 mg/kg/day and 100 mg/kg/day were active in the preceding mouse model when treatment was initiated at 65 h post inoculation. Also, topical treatment of cutaneous HSV-2 infections, namely HG-52 or the acyclovir resistant HSV-2 strain VK-1 (C. S. Crumpacker, New Engl. J. Med., 1989, 320, 293) infections, in the mouse model with the above noted 3% w/w formulation of Entry No. 29 was therapeutically effective, producing a 58 to 72% reduction of viral pathology.

[2] abbreviates: Human betaherpesvirus 5, AD169, Hs68, Group 1 Table 2 entries.
Where [3] appears, read: Group 1 Table 2 entries, read-out: Cytotoxic at this concentration (footnote, PRA CMV).
[4] abbreviates: Human betaherpesvirus 5, AD169, Hs68, Group 1 Table 1 entries.
Where [5] appears, read: Group 1 Table 1 entries, read-out: Cytotoxic at this concentration (footnote *, PRA CMV).

Structures are written as SMILES. Like-named read-outs stand apart in the source and are kept apart here.

The term EC50 denotes the concentration giving half of the maximal effect. As to `Nc1nc(-c2ccc(NC(=O)CCNC3Cc4ccccc4C3)cc2)cs1` [Example 10], the EC50 in the data set with HCMV (strain AD169) (setting [2]) amounted to 7.5 µM. For the same molecule, the MCC at 192 h in data set [1] (setting [3]) amounted to 14 µM.

In the case of `Nc1nc(-c2ccc(NC(=O)CCN(Cc3ccccc3)C(=O)OCc3ccccc3)cc2)cs1` [Example 16], in the data set with HCMV (strain AD169) (setting [2]), the EC50 was 7 µM. In data set [1] (setting [3]), the MCC at 192 h was 8 µM.

Turning to `CN(CC(=O)Nc1ccc(-c2csc(N)n2)cc1)C(=O)c1ccncc1` [Example 22], the concentration for a half-maximal effect (EC50) in the data set with HCMV (strain AD169) (setting [4]) is 110 µM. Also, the MCC at 192 h in data set [1] (setting [5]) was 110 µM.

As for `Nc1nc(-c2ccc(NC(=O)CCNCC3CCCCC3)cc2)cs1` [Example 22], the concentration giving a half-maximal response (EC50) in the data set on HCMV (strain AD169) (setting [2]) is 4.8 µM. Further, the MCC at 192 h in data set [1] (setting [3]) was 6 µM.

Take `CCCC(CCC)NCCC(=O)Nc1ccc(-c2csc(N)n2)cc1` [Example 23]: the EC50 in the data set with HCMV (strain AD169) (setting [2]) turned out to be 4 µM. Besides, the MCC at 192 h in data set [1] (setting [3]) turned out to be 9 µM.

For the molecule `Nc1nc(-c2ccc(NC(=O)CN(Cc3ccccc3)C(=O)c3ccccn3)cc2)cs1` [Example 27], the EC50 in the data set on HCMV (strain AD169) (setting [4]) is 7 µM. In addition, the MCC at 192 h in data set [1] (setting [5]) came to 36 µM.

One may read the ED50 as the midpoint of the dose-response relation. In the case of `Nc1nc(-c2ccc(NC(=O)CN(Cc3ccccc3)C(=O)c3ccncc3)cc2)cs1` [Example 29], the concentration giving a half-maximal response (EC50) in the data set on HCMV (strain AD169) (setting [4]) was 12 µM. In addition, the ED50 with HSV-1 KOS came to 56 mg/kg.

For `Nc1nc(-c2ccc(NC(=O)CN(Cc3ccccc3)C(=O)C3CCCC3)cc2)cs1` [Example 36], in the data set on HCMV (strain AD169) (setting [4]), the half-maximal effective concentration (EC50) is 2.8 µM. In the data set on HSV-1 KOS, the ED50 was 51 mg/kg.

On to `Nc1nc(-c2ccc(NC(=O)CN(Cc3ccncc3)C(=O)C3CCCCC3)cc2)cs1` [Example 49, N-{2-{{4-(2-amino-4-thiazolyl)phenyl}amino}-2-oxoethyl}-N-(4-pyridinylmethyl)cyclohexanecarboxamide], for which the EC50 in the data set on HCMV (strain AD169) (setting [4]) was 25 µM. Also, the ED50 with HSV-1 KOS is 129 mg/kg.

Consider `C[C@@H](c1ccccc1)N(CC(=O)Nc1ccc(-c2csc(N)n2)cc1)C(=O)c1ccncc1` [Example 58], for which, in the data set with HCMV (strain AD169) (setting [4]), the EC50 came out at 5.2 µM. For the same molecule, the ED50 in the data set with HSV-1 KOS stood at 31 mg/kg.

Turning to `Nc1nc(-c2ccc(NC(=O)CN(CC3CCCCC3)C(=O)C3CCCC3)cc2)cs1` [Example 63], the EC50 with HCMV (strain AD169) (setting [4]) stood at 2.2 µM. Besides, in data set [1] (setting [5]), the MCC at 192 h was found to be 21 µM.

As for `CCCC(CCC)N(CC(=O)Nc1ccc(-c2csc(N)n2)cc1)C(=O)C1CCCCC1` [Example 82], the EC50 in the data set on HCMV (strain AD169) (setting [4]) was determined as 8.1 µM. Besides, the MCC at 192 h in data set [1] (setting [5]) was 7 µM.

With `CCC(CC)C(=O)N(CC(=O)Nc1ccc(-c2csc(N)n2)cc1)Cc1ccccc1` [Example 104], the EC50 in the data set on HCMV (strain AD169) (setting [4]) was determined as 1.9 µM. Also, the MCC at 192 h in data set [1] (setting [5]) worked out at 18 µM.
